# Assay results taken from patent publication US7419669B2, “Peptide epitopes common to antigens of the same multigene family” (Institut Gustave Roussy, priority 2002, dated 2008).
# Entries after “also recorded” stand apart in the source; their conditions may differ. Where no end group is shown, it is not given here.
# Experiments:
# [1] = system: tumor cells; details: MICONNET et al., 2000; cited from earlier work
# [2] = molecular target: HLA-B*3701 allele of MHC-I (Homo sapiens, UniProt P01889, A329T/A93T/A95T/C349S/D138N/D201E/D98Y/E176V/E187T/E204Q/E69T/G107R/H137Y/K202T/L119I/N104T/N87E/Q94N/R106L/R155S/R180D/S101D/S121R/V306I/Y123S/Y140F/Y33H/Y91S); details: TANZARELLA et al., 1999; cited from earlier work
# [3] = system: HLA-A*0201 human tumor cells expressing MAGE-A antigens (M44, M113, OBR); test: Stimulation of CTL248 line with HLA-A*0201 human tumor cells expressing MAGE-A antigens, TNF-α secretion; format: cell-based
# Method: The following HLA-A*0201 tumor lines were used: • lines expressing at least one MAGE-A antigen: M44 and M113 (melanoma); OBR (bladder cancer); • lines not expressing MAGE-A antigens: MCF-7 (breast cancer) and Caco-2 (colon cancer).
# The CTL248 line was stimulated with each of the tumor lines mentioned above.
# The stimulation is evaluated by detecting the secretion of TNF-α as described above.
# In order to confirm that the tumor cell recognition is indeed HLA-A*0201-restricted, the CTL248 cells were stimulated with M44 cells preincubated for one hour with an anti-HLA-A*0201 monoclonal antibody (BB7.2) or with an irrelevant antibody (anti-CD19), and the production of TNFα was measured as described above.
# [4] = system: CD8+ cells from normal donors; test: Induction of specific human CTLs in vitro from PBMCs of normal donors with p248V9, intracellular IFNγ production; format: cell-based
# Method: The ability of p248V9 to induce CTLs in vitro using peripheral blood mononuclear cells (PBMCs) from normal donors was tested as follows.
# The PBMCs are obtained, from blood samples taken by leukocytapheresis on normal donors, after centrifugation at 2000 rpm for 20 min on a Ficoll/Hypaque (Amersham) gradient. After 3 washes in 0.9% NaCl, they are resuspended in complete medium (RPMI 1640 supplemented with 10% of heat-inactivated human AB serum, 40 μg/ml of gentamicin (Panpharma) and […] of L-glutamine (Gibco)), and incubated at 37° C. for 2 hours. After incubation, the non-adherent cells are removed. The adherent cells are differentiated into dendritic cells by culturing in a Teflon bag in a proportion of 3×10^6 cells/ml in complete medium supplemented with 500 IU/ml of GM-CSF (R & D Systems) and 500 IU/ml of IL-4 (R & D Systems). On the seventh day, maturing agents (100 ng/ml of polyI:C and 2 μg/ml of anti-CD40 antibody) are added to the culture. After 24 hours, the mature dendritic cells are loaded with the peptide p248V9 by incubation for 2 hours with 10 μM of peptide in the presence of 5 μg/ml of β2-microglobulin, and then irradiated at 3500 rads; they are then washed in order to remove the free peptide. CD8+ cells are isolated from the non-adherent cells by means of microbeads coupled to an anti-CD8 antibody (Miltenyi Biotec).
# 2×10^5 CD8+ cells are stimulated with 2×10^4 dendritic cells loaded with the peptide, in complete medium supplemented with 1000 IU/ml of IL-6 and 5 IU/ml of IL-12 in a final volume of 100 μl/well in a 96-well plate. From the seventh day, the cultures are stimulated in vitro each week with the dendritic cells loaded with the peptide, in the presence of 20 IU/ml of IL-2 and 10 ng/ml of IL-7. After the third restimulation, the CD8+ cells are collected and stimulated with EBV-transformed HLA-A*0201 allogenic B cells, in a 1/2 ratio, in the presence of 10 μM of peptide, for 16 hours.
# The IFNγ-producing CD8+ cells are purified using a commercial kit (IFNγ secretion assay-cell enrichment and detection kit, Miltenyi Biotech). The cells thus purified are cultured for one week in complete medium supplemented with 20 IU/ml of IL-2 and 10 ng/ml of IL-7.
# The response of these CD8+ cells to T2 cells loaded with one of the peptides p248V9, p248G9 or p248D9, or with a irrelevant peptide (HIVgag76), or to HLA-A*0201+MAGE-A+ tumor cells (M44 and M113) or HLA-A*0201+MAGE-A^− tumor cells (Caco-2), is evaluated by assaying the intracellular IFNγ production.
# The CD8+ cells are incubated with the cells of the tumor line tested, in the presence of 20 μg/ml of Brefeldine-A (Sigma). […]
# The cells are then analyzed by flow cytometry (FACSCalibur™ (Becton Dickinson) and CellQuest™ software).
# [5] = system: COS-7 cells cotransfected with HHD construct and MAGE-A cDNA; test: Stimulation of CTL248 line (induced with p248V9) with transfected COS-7 cells expressing MAGE-A antigens, TNF-α secretion; format: cell-based, monkey
# Method: A CTL line called CTL248 was established from the spleen cells of an HDD mouse immunized with the peptide p248V9, by repeated stimulation in vitro with decreasing concentrations of p248G9 (10 μM-1 μM). This line is maintained in culture in the presence of 1 μM of the peptide p248G9.
# The cells of the CTL248 line are stimulated, for each of the MAGE-A1, -A2, -A3, -A4, -A6, -A10 and -A12 antigens, with monkey cos-7 cells cotransfected with the HAD construct (PASCOLO et al., mentioned above) and a plasmid containing the cDNA for said antigen. By way of negative controls, COS-7 cells transfected either with the HHD construct alone or with the cDNA for the MAGE-A antigen concerned are used. The stimulation of the CTLs is evaluated by measuring their secretion of TNF-α. […]
# After incubation for 6 hours, the supernatant is removed and brought into contact with WEHI164 clone 13 mouse fibrosarcoma cells (3×10^4 per well), which are characterized by a high sensitivity to TNF-α-induced apoptosis. In order to quantify the amount of TNF in the culture supernatants, a standard range of TNF-α (concentrations of 0 to 10^4 pg/ml) is used in parallel. After incubation for 16 hours at 37° C., the viability of the WEHI-164 clone 13 cells is determined by means of an MTT colorimetric assay (SIGMA) (ESPEVIK and NISSEN MEYER, J. Immunol. Methods, 95, 99, 1986).
# [6] = system: HHD transgenic mice; test: Induction of specific CTLs in HHD transgenic mice by immunization with variant MAGE-A peptides; 51Cr cytotoxicity on peptide-loaded RMAS-HHD targets; format: in vivo; details: HHD mice, 100 μg s.c. in Freund's incomplete adjuvant; RMAS-HHD targets, effector/target 40/1
# Method: The immunogenicity of the variant peptides p174Y1V10, p262L2 and p248V9 was evaluated by generation of CTLs on HHD transgenic mice (PASCOLO et al., J. Exp. Med., 185, 2043, 1997). These mice are β2m−/−, D^b−/− and express an HLA-A*0201 single chain made up of the α1 and α2 domains of HLA-A*0201 and the α3 and intracellular domains of D^b, linked via its N-terminal to the C-terminal of human β2-microglobulin, via a peptide of 15 amino acids.
# The HHD mice are given a subcutaneous injection at the base of the tail with 100 μg of each variant peptide to be tested, emulsified in Freund's incomplete adjuvant, in the presence of 140 μg of a T-helper epitope derived from the HBV “core” antigen (128-140, sequence […]).
# After 11 days, spleen cells taken from the mice (5×10^7 cells in 10 ml) are stimulated in vitro with the test peptide (10 μM). On the 6th day of culture, the populations which respond are tested in order to determine a specific cytotoxicity. The cells which respond are restimulated in vitro at one-week intervals with 2×10^7 irradiated (3000 rads) HHD spleen cells and 1 to 0.1 μM of peptide in the presence of 50 IU/ml of recombinant IL2 (Proleukin, Chiron Corp).
# Cytotoxicity assays are carried out 6 days after the final stimulation.
# RMAS-HHD cells are used as targets to study the cytotoxicity. The cells are obtained by transfection of murine RMAS cells with the HHD construct as described by PASCOLO et al. (J. Exp. Med., 185, 2043, 1997).
# These target cells are labeled with 100 μCi of ^51Cr for 90 minutes, and then washed three times and plated out in round-bottomed 96-well plates (3×10^3 cells/well in 100 μl of RPMI 1640+3% of fetal calf serum). They are loaded with various concentrations of test peptide (variant, native peptide, or irrelevant control peptide), at 37° C. for 90 minutes.
# Next, 100 μl of the effector cells (effector cell/target cell ratio=40/1) are added to the wells and the plates are incubated at 37° C. for 4 hours. After incubation, 100 μl of supernatant are collected and the radioactivity is measured in a γ-counter.
# The percentage of specific lysis is calculated by means of the formula: [(experimental ^51Cr release−spontaneous ^51Cr release)/(maximum ^51Cr release−spontaneous ^51Cr release)]×100. In all the experiments, the spontaneous release is less than 20% of the maximum release induced with 3N HCl.
sequence,measurement,setting,value
FLWGPRALV,processing of the epitope by tumor cells,[1],not efficiently processed by tumor cells
REPVTKAEML (listed as Homo sapiens),binding to HLA-B*3701,[2],binds to the HLA-B*3701 allele of MHC-I
YLEYRQVPV (not fully specified) [p248V9],recognition of naturally processed MAGE-A epitope by CTLs induced with the peptide (HLA-A*0201 human tumor lines),[3],"recognize a naturally processed epitope common to the MAGE-A1, -A2, -A3, -A4, -A6, -A10 and -A12 antigens"
same,induction of human CTLs by the peptide,"[4]; PBMCs from normal donors, peptide-loaded dendritic cells, intracellular IFNγ","induces human CTLs capable of also recognizing the corresponding native peptides, and capable of recognizing tumor cells expressing varied MAGE-A antigens"
same,response of p248V9-induced human CD8+ cells to T2 cells loaded with the peptide,[4]; intracellular IFNγ production,a response of the CD8+ cells
same,recognition of naturally processed MAGE-A epitope by CTLs induced with the peptide (COS-7 transfectants),[5],"recognize a naturally processed epitope common to the MAGE-A1, -A2, -A3, -A4, -A6, -A10 and -A12 antigens"
same,CTL response generated by immunization with the variant peptide,[6],"induces a CTL response directed not only against this variant but also against the two native peptides p248G9 and p248D9; also recorded: generates CTLs which kill the RMAS-HHD targets loaded with the variant peptide, or with the corresponding native peptide"
